Source: paper PMC9851200, “Multiparameter phenotypic screening for endogenous TFEB and TFE3 translocation identifies novel chemical series modulating lysosome function” (Autophagy, 2022)
Like-named read-outs stand apart in the source and are kept apart here.

Experiments:
SH-SY5Y cells [1] = assay: Nuclear count from microscopy images (cellular growth and toxicity); also: reference of the scale not given here
SH-SY5Y cells [2] = test system: SH-SY5Y cells; also: reference of the scale not given here
endogenous TFE3 = assay: TFE3 nuclear translocation, immunocytochemistry high-content imaging; assay type: cell-based
SH-SY5Y cells [3] = assay: AK (adenylate kinase) release ToxiLight cytotoxicity assay; also: reference of the scale not given here
endogenous TFEB = assay: TFEB nuclear translocation, immunocytochemistry high-content imaging; assay type: cell-based
[4] = PKIS2 primary screening, DQ Red BSA intensity
[5] = PKIS2 primary screening, DQ Red BSA spot count

Compound	Nuclear Count (SH-SY5Y cells [1]; PKIS2 primary screening)	DQ Intensity (SH-SY5Y cells [2]; PKIS2 primary screening)	DQ Spot (SH-SY5Y cells [2]; PKIS2 primary screening)	TFE3 % (endogenous TFE3; PKIS2 primary screening)	AK (SH-SY5Y cells [3]; PKIS2 primary screening)	TFEB % (endogenous TFEB; PKIS2 primary screening)	DQ Intensity (SH-SY5Y cells [2]; [4])	DQ Spot (SH-SY5Y cells [2]; [5])	Nuclear Count (SH-SY5Y cells [1]; PKIS2 primary screen)	DQ Intensity (SH-SY5Y cells [2]; PKIS2 primary screen, DQ Red BSA intensity)	DQ Spot (SH-SY5Y cells [2]; PKIS2 primary screen, DQ Red BSA spot count)	TFE3 % (endogenous TFE3; PKIS2 primary screen)	AK (SH-SY5Y cells [3]; PKIS2 primary screen)	TFEB % (endogenous TFEB; PKIS2 primary screen)
Cl.Cl.Cl.Fc1ccc(-c2ncn(C3CCNCC3)c2-c2ccnc(Nc3ccccc3)n2)cc1 [UNC10225420B]	69.94	154.30	110.72	11.83%	83.09	2.15%								
Cl.Fc1ccccc1COc1ccc(Nc2ncnc3ccc(-c4nnc(C(F)(F)F)o4)cc23)cc1Cl [UNC10225422A]	121.67			5.47%	104.09	3.54%	100.75	98.62						
CSc1nccc(-c2c(-c3ccc(F)cc3)ncn2CCCN2CCOCC2)n1.Cl [UNC10225426A]	113.07	91.90	91.96	5.71%	81.99	11.69%								
CS(=O)(=O)Nc1ccc(-c2ccnc3[nH]ccc23)cc1 [UNC10225427A]	134.12			8.99%	106.42	2.64%	61.89	80.51						
Nc1nc(-c2nccs2)c(-c2ccnc3ccccc23)s1 [UNC10225429A]	118.67			19.15%	94.26	3.83%	102.85	117.25						
COc1cc(Nc2nccc(-c3c(-c4cccc(NC(=O)c5c(F)cccc5F)c4)nn4ncccc34)n2)cc(OC)c1OC [UNC10225433A]	35.61	122.13	59.34	17.61%	102.19	23.04%								
CSc1nn2c(=O)cc(N3CCOCC3)nc2n1Cc1cccc(Cl)c1Cl [UNC10225435A]	99.93	59.30	119.93	19.82%	85.33	4.09%								
CSc1cccc2c(-c3ccncn3)c(-c3ccc(F)cc3)nn12 [UNC10225437A]	89.95	120.45	125.69	10.83%	100.64	6.79%								
O=c1cc(N2CCOCC2)nc2n(Cc3cccc4ccccc34)ccn12 [UNC10225439A]	128.21	73.77	88.56	9.76%	77.38	8.17%								
Cl.O=C(Nc1cccc(-c2nn3ncccc3c2-c2ccnc(Nc3cccnc3)n2)c1)c1c(F)cccc1F [UNC10225440A]	119.73	138.59	122.41	9.74%	101.41	7.43%								
Oc1cc(Nc2ccnc3cc(I)ccc23)ccc1F [UNC10225441A]	104.34			8.03%	73.72	12.97%	124.88	110.03						
CN1CCC(n2cnc(-c3ccc(F)cc3)c2-c2ccnc(NC3CCNCC3)n2)CC1 [UNC10225443A]	105.97	104.65	93.05	14.45%	75.10	5.73%								
COc1ccc(NC(=O)Nc2ccc(C)c(-c3ccc(C(=O)Nc4ccncc4)cc3)c2)cc1 [UNC10225445A]	96.32	64.07	80.56	17.87%	81.64	6.73%								
Cc1n[nH]c2ccc(-c3cc(OC[C@@H](N)Cc4ccccc4)cnc3-c3ccoc3)cc12.O=C(O)C(F)(F)F.O=C(O)C(F)(F)F [UNC10225447A]	74.49	66.58	65.23	18.99%	97.39	5.41%								
COc1cc2ncn(-c3cc(OCCCc4ccccc4)c(C(N)=O)s3)c2cc1OC [UNC10225450A]	118.22	116.92	123.73	11.96%	94.56	3.13%								
O=C(O)C(F)(F)F.O=c1[nH]ccc2nc(N[C@@H]3CCNC3)nc(Nc3ccc4c(c3)S(=O)(=O)CC4)c12 [UNC10225451A]	98.38	83.68	100.25	16.36%	185.61	7.05%								
CN(C)CCNS(=O)(=O)c1ccc(-c2ccnc3[nH]ccc23)cc1 [UNC10225452A]	78.72			16.94%	114.11	4.89%	125.57	113.31						

Compound	Nuclear Count (SH-SY5Y cells [1]; PKIS2 primary screening)	DQ Intensity (SH-SY5Y cells [2]; PKIS2 primary screening)	DQ Spot (SH-SY5Y cells [2]; PKIS2 primary screening)	TFE3 % (endogenous TFE3; PKIS2 primary screening)	AK (SH-SY5Y cells [3]; PKIS2 primary screening)	TFEB % (endogenous TFEB; PKIS2 primary screening)	DQ Intensity (SH-SY5Y cells [2]; [4])	DQ Spot (SH-SY5Y cells [2]; [5])	Nuclear Count (SH-SY5Y cells [1]; PKIS2 primary screen)	DQ Intensity (SH-SY5Y cells [2]; PKIS2 primary screen, DQ Red BSA intensity)	DQ Spot (SH-SY5Y cells [2]; PKIS2 primary screen, DQ Red BSA spot count)	TFE3 % (endogenous TFE3; PKIS2 primary screen)	AK (SH-SY5Y cells [3]; PKIS2 primary screen)	TFEB % (endogenous TFEB; PKIS2 primary screen)
COc1cccc(-n2cnc3c(N)ncnc32)c1 [UNC10225454A]	128.34	95.23	104.69	8.30%	83.60	7.17%								
CCN(CC)CCOc1ccc(Nc2ncc3cc(-c4c(Cl)cccc4Cl)c(=O)n(C)c3n2)cc1 [UNC10225459A]									26.96	115.72	64.83	18.27%	131.29	22.54%
CCn1c(-c2nonc2N)nc2c(C#CC(C)(C)O)nc(OCCN)cc21.Cl.Cl [UNC10225460A]	55.94	74.51	103.98	15.40%	78.09	9.06%								
O=S(=O)(c1ccc(-c2ccnc3[nH]ccc23)cc1)N1CCCC1 [UNC10225462A]	103.12			10.23%	140.08	5.43%	72.77	93.44						
Cl.Cl.c1ccc(-c2cc3ccncc3cc2OC2CCNCC2)cc1 [UNC10225463A]	112.69	117.87	77.04	49.72%	97.09	5.07%								
Cl.Cl.NCC(NC(=O)c1cc(-c2ccccc2)c(-c2ccnc3[nH]ccc23)s1)c1ccccc1 (stereo not drawn) [UNC10225466A]	129.43			18.77%	133.16	5.04%	104.29	96.16						
Cl.Cl.NCC(NCc1ccc(-c2ccnc3[nH]ccc23)s1)c1ccccc1 (stereo not drawn) [UNC10225471A]	123.37			13.41%	98.53	4.03%	100.58	94.95						
CN(C(=O)c1ccc(-c2cc(-c3c[nH]nc3-c3ccccn3)ccn2)cc1)C1CCOCC1 [UNC10225473A]	84.56			13.07%	101.87	8.39%	126.52	117.08						
CCn1c(-c2ccoc2)nc2cnccc21 [UNC10225474A]	101.97	148.88	113.44	9.12%	125.64	2.97%								
COc1ccc(NC(=O)c2ccc(-c3cc(-c4nnc(C)o4)ccc3C)cc2)cc1 [UNC10225475A]	99.11	95.33	98.26	13.72%	97.70	3.99%								
Cn1cc(-c2ccc3c(c2)CCN3C(=O)Cc2cc(F)cc(C(F)(F)F)c2)c2c(N)ncnc21 [UNC10225478A]	95.63	103.20	103.08	18.35%	72.42	5.80%								
CC(=O)N1CCN(c2ccc(Nc3nccc(-c4sc(C(C)C)nc4-c4cccc(NS(=O)(=O)c5cccc(Cl)c5)c4)n3)cn2)CC1 [UNC10225481A]	128.41	100.90	115.22	9.55%	73.54	3.72%								
Cl.Oc1ccc(-c2nc(-c3ccccc3)[nH]c2-c2ccncc2)cc1 [UNC10225482A]	92.35			9.08%	90.33	7.63%	99.60	108.10						
CSc1ccc(-c2nc3n(c2-c2ccncc2)CCC3)cc1 [UNC10225486A]	91.88			13.99%	80.57	5.52%	119.41	102.53						
Cl.c1ccc(Cn2ccc3cc(Nc4ncnc5ccccc45)ccc32)cc1 [UNC10225488A]	128.88			8.10%	113.68	3.41%	101.44	98.20						
Cc1ccc(CC(=O)N2CCc3cc(-c4cn(C)c5ncnc(N)c45)ccc32)cc1 [UNC10225490A]	101.02	104.55	111.62	14.69%	123.53	5.80%								
Cc1ccccc1COc1cc(-n2cnc3cc(Cl)ccc32)sc1C(N)=O [UNC10225491A]	71.39	119.27	99.65	6.85%	190.42	9.14%								
